*1 amine or outer side, *2 acyl side, *3 side chain or, on linkers, in order; H or OH if unused. Where a SMILES comes first, the peptide text is derived from it. Bridges are numbered along the chain shown (N, C = ends). [ ]: non-standard residue; d: D form. Trp(5-Cl) = N[C@@H](Cc1c[nH]c2ccc(Cl)cc12)C(=O)O; Phe(3,4-Cl2) = N[C@@H](Cc1ccc(Cl)c(Cl)c1)C(=O)O; Pyridine(2,6-diCH2) = c1cc(C[*:1])nc(C[*:2])c1; Phe(3-Cl) = N[C@@H](Cc1cccc(Cl)c1)C(=O)O; 1Nal = N[C@@H](Cc1cccc2ccccc12)C(=O)O; mXylylene = c1cc(C[*:1])cc(C[*:2])c1; oXylylene = c1ccc(C[*:2])c(C[*:1])c1; X6 = c1cc(CSCCN[*:2])nc(C[*:1])c1; Cya = N[C@@H](CS(=O)(=O)O)C(=O)O; Hyp = O=C(O)[C@@H]1C[C@@H](O)CN1; Suc = O=C(CCC(=O)[*:2])[*:1]; hLeu = CC(C)CC[C@H](N)C(=O)O; Thp = NC1(C(=O)O)CCOCC1; Aib = CC(C)(N)C(=O)O
Molecular target: T1, GIPR (CHO-K1-hGIPR cells) (Homo sapiens, UniProt P48546)
T1 construct: host or cells: CHO-K1
T1 sequence (P48546 22-466): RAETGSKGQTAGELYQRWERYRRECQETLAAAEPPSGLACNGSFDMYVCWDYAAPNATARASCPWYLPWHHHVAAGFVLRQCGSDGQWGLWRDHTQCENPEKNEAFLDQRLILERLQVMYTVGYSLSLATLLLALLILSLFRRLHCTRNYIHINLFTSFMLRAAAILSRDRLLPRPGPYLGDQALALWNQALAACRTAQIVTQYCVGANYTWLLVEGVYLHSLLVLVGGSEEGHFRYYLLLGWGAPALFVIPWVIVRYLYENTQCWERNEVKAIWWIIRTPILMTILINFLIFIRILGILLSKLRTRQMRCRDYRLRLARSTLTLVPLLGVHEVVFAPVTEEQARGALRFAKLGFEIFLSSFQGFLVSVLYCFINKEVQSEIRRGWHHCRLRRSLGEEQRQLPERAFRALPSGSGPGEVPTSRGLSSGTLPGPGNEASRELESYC
Assay: FACS binding assay
Conditions: competition with 20 nM GIP-057, 4° C. for 1 hour, read-out: pIC50 Category (converted)
How it was run: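 CHO-K1 cells expressing human GIPR, washed in PBS/1% FCS, then stained with 1 μg/mL APC-streptavidin for 30 min on ice.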

Structure (SMILES) | IC50 [nM]
CC[C@H](C)[C@@H]1NC(=O)[C@H](CC(C)C)NC(=O)[C@H](C)NC(=O)[C@@H](NC(=O)[C@H](CC(C)C)NC(=O)[C@H](CCC(=O)O)NC(=O)[C@@H]2CCCN2C(=O)[C@H](Cc2c[nH]c3ccccc23)NC(=O)[C@@H](Cc2c[nH]c3ccccc23)NC(=O)[C@H](CC(=O)O)NC(=O)[C@H](Cc2ccc(O)cc2)NC(=O)[C@@H](N)CCSC)CSCc2cccc(c2)CSC[C@@H](C(N)=O)NC1=O [GIP-308, H-Met-Tyr-Asp-trp-Trp-Pro-Glu-Leu-[Cys(3MeBn)-Ala-Leu-Ile-Cys]-NH2] (H-MYD[dW]WPELCALIC-NH2; linker 9-13 via mXylylene) | 100 to 794
CC[C@H](C)[C@@H]1NC(=O)[C@H](CC(C)C)NC(=O)[C@H](C)NC(=O)[C@H](NC(=O)[C@H](CC(C)C)NC(=O)[C@H](CCC(=O)O)NC(=O)[C@@H]2CCCN2C(=O)[C@H](Cc2c[nH]c3ccccc23)NC(=O)[C@H](Cc2c[nH]c3ccccc23)NC(=O)[C@H](CC(=O)O)NC(=O)[C@H](Cc2ccc(O)cc2)NC(=O)[C@@H](N)CCSC)CSCc2cccc(c2)CSC[C@@H](C(N)=O)NC1=O [GIP-309] (H-MYDWWPEL[dC]ALIC-NH2; linker 9-13 via mXylylene) | 100 to 794
CC[C@H](C)[C@@H]1NC(=O)[C@H](CC(C)C)NC(=O)[C@H](C)NC(=O)[C@@H](NC(=O)[C@H](CC(C)C)NC(=O)[C@H](CCC(=O)O)NC(=O)[C@@H]2CCCN2C(=O)[C@H](Cc2c[nH]c3ccccc23)NC(=O)[C@H](Cc2c[nH]c3ccccc23)NC(=O)[C@H](CC(=O)O)NC(=O)[C@H](Cc2ccc(O)cc2)NC(=O)[C@@H](N)CCSC)CSCc2cccc(c2)CSC[C@H](C(N)=O)NC1=O [GIP-310] (H-MYDWWPELCALI[dC]-NH2; linker 9-13 via mXylylene) | 100 to 794
CC[C@H](C)[C@@H]1NC(=O)[C@H](CC(C)C)NC(=O)[C@H](C)NC(=O)[C@@H](NC(=O)[C@H](CC(C)C)NC(=O)[C@H](CCC(=O)O)NC(=O)[C@H](C)NC(=O)[C@H](Cc2c[nH]c3ccccc23)NC(=O)[C@H](Cc2c[nH]c3ccccc23)NC(=O)[C@H](CC(=O)O)NC(=O)[C@H](Cc2ccc(O)cc2)NC(=O)[C@@H](N)CCSC)CSCc2cccc(c2)CSC[C@@H](C(N)=O)NC1=O [GIP-311] (H-MYDWWAELCALIC-NH2; linker 9-13 via mXylylene) | 100 to 794
CC[C@H](C)[C@@H]1NC(=O)[C@H](C)NC(=O)[C@H](C)NC(=O)[C@@H](NC(=O)[C@H](CC(C)C)NC(=O)[C@H](CCC(=O)O)NC(=O)[C@@H]2CCCN2C(=O)[C@H](Cc2c[nH]c3ccccc23)NC(=O)[C@H](Cc2c[nH]c3ccccc23)NC(=O)[C@H](CC(=O)O)NC(=O)[C@H](Cc2ccc(O)cc2)NC(=O)[C@@H](N)CCSC)CSCc2cccc(c2)CSC[C@@H](C(N)=O)NC1=O [GIP-312] (H-MYDWWPELCAAIC-NH2; linker 9-13 via mXylylene) | 100 to 794
CC[C@H](C)[C@@H]1NC(=O)[C@@H](CC(C)C)NC(=O)[C@H](C)NC(=O)[C@@H](NC(=O)[C@H](CC(C)C)NC(=O)[C@H](CCC(=O)O)NC(=O)[C@@H]2CCCN2C(=O)[C@H](Cc2c[nH]c3ccccc23)NC(=O)[C@H](Cc2c[nH]c3ccccc23)NC(=O)[C@H](CC(=O)O)NC(=O)[C@H](Cc2ccc(O)cc2)NC(=O)[C@@H](N)CCSC)CSCc2ccccc2CSC[C@@H](C(N)=O)NC1=O [GIP-313] (H-MYDWWPELCA[dL]IC-NH2; linker 9-13 via oXylylene) | 100 to 794
CC[C@H](C)[C@@H]1NC(=O)[C@H](CC(C)C)NC(=O)[C@@H](C)NC(=O)[C@@H](NC(=O)[C@H](CC(C)C)NC(=O)[C@H](CCC(=O)O)NC(=O)[C@@H]2CCCN2C(=O)[C@H](Cc2c[nH]c3ccccc23)NC(=O)[C@H](Cc2c[nH]c3ccccc23)NC(=O)CCC(=O)O)CSCc2cccc(c2)CSC[C@@H](C(N)=O)NC1=O [GIP-314, HO-Succinyl-Trp-Trp-Pro-Glu-Leu-[Cys(3MeBn)-ala-Leu-Ile-Cys]-NH2] (Suc-WWPELC[dA]LIC-NH2; linker 6-10 via mXylylene) | 100 to 794
CC[C@H](C)[C@@H]1NC(=O)[C@H](CC(C)C)NC(=O)C(C)(C)NC(=O)[C@@H](NC(=O)[C@H](CCC(C)C)NC(=O)[C@H](CCC(=O)O)NC(=O)[C@@H]2CCCN2C(=O)[C@H](Cc2cccc3ccccc23)NC(=O)[C@H](Cc2c[nH]c3ccccc23)NC(=O)[C@H](CC(=O)O)NC(C)=O)CSCc2cccc(c2)CSC[C@@H](C(N)=O)NC1=O [GIP-315, Ac-Asp-Trp-1Ni-Pro-Glu-Hle-[Cys(3MeBn)-Aib-Leu-Ile-Cys]-NH2] (Ac-DW[1Nal]PE[hLeu]C[Aib]LIC-NH2; linker 7-11 via mXylylene) | 100 to 794
CC[C@H](C)[C@@H]1NC(=O)[C@H](CC(C)C)NC(=O)C(C)(C)NC(=O)[C@@H](NC(=O)[C@@H](CC(C)C)NC(=O)[C@H](CCC(=O)O)NC(=O)[C@@H]2C[C@@H](O)CN2C(=O)[C@H](Cc2c[nH]c3ccc(Cl)cc23)NC(=O)CNC(=O)[C@H](CS(=O)(=O)O)NC(C)=O)CSCc2cccc(n2)CSCCNC1=O [GIP-316, Ac-Cya-Gly-5Clw-Hyp-Glu-leu-[Cys(2Lut)-Aib-Leu-Ile-AET]] (Ac-[Cya]G[Trp(5-Cl)][Hyp]E[dL]C[Aib]LI; linker 7-C via X6) | 100 to 794
CC[C@H](C)[C@@H]1NC(=O)[C@H](CC(C)C)NC(=O)[C@H](C)NC(=O)[C@@H](NC(=O)[C@H](CC(C)C)NC(=O)[C@H](CCC(=O)O)NC(=O)[C@@H]2CCCN2C(=O)[C@H](Cc2c[nH]c3ccccc23)NC(=O)[C@H](Cc2c[nH]c3ccccc23)NC(=O)[C@H](CS(=O)(=O)O)NC(C)=O)CSCc2cccc(c2)CSC[C@@H](C(N)=O)NC1=O [GIP-317, Ac-Cya-Trp-Trp-Pro-Glu-Leu-[Cys(3MeBn)-Ala-Leu-Ile-Cys]-NH2] (Ac-[Cya]WWPELCALIC-NH2; linker 7-11 via mXylylene) | 100 to 794
CC[C@H](C)[C@@H]1NC(=O)[C@H](CC(C)C)NC(=O)[C@@H](C)NC(=O)[C@@H](NC(=O)[C@@H](CC(C)C)NC(=O)[C@H](CCC(=O)O)NC(=O)[C@@H]2CCCN2C(=O)[C@H](Cc2c[nH]c3ccccc23)NC(=O)[C@H](Cc2c[nH]c3ccccc23)NC(=O)CCC(=O)O)CSCc2cccc(c2)CSC[C@@H](C(N)=O)NC1=O [GIP-318, HO-Succinyl-Trp-Trp-Pro-Glu-leu-[Cys(3MeBn)-ala-Leu-Ile-Cys]-NH2] (Suc-WWPE[dL]C[dA]LIC-NH2; linker 6-10 via mXylylene) | 100 to 794
CC[C@H](C)[C@@H]1NC(=O)[C@H](CC(C)C)NC(=O)C(C)(C)NC(=O)[C@@H](NC(=O)[C@H](CC(C)C)NC(=O)[C@H](CCC(=O)O)NC(=O)[C@@H]2C[C@@H](O)CN2C(=O)[C@H](Cc2c[nH]c3ccccc23)NC(=O)[C@H](Cc2c[nH]c3ccccc23)NC(=O)CCC(=O)O)CSCc2cccc(c2)CSC[C@@H](C(N)=O)NC1=O [GIP-319, HO-Succinyl-Trp-Trp-Hyp-Glu-Leu-[Cys(3MeBn)-Aib-Leu-Ile-Cys]-NH2] (Suc-WW[Hyp]ELC[Aib]LIC-NH2; linker 6-10 via mXylylene) | 100 to 794
CC[C@H](C)[C@@H]1NC(=O)[C@H](CC(C)C)NC(=O)C2(CCOCC2)NC(=O)[C@@H](NC(=O)[C@@H](CC(C)C)NC(=O)[C@H](CCC(=O)O)NC(=O)[C@@H]2C[C@@H](O)CN2C(=O)[C@H](Cc2cccc(Cl)c2)NC(=O)[C@H](Cc2c[nH]c3ccccc23)NC(=O)[C@H](CC(=O)O)NC(C)=O)CSCc2cccc(n2)CSC[C@@H](C(N)=O)NC1=O [GIP-320, Ac-Asp-Trp-Mcf-Hyp-Glu-leu-[Cys(2Lut)-Thp-Leu-Ile-Cys]-NH2] (Ac-DW[Phe(3-Cl)][Hyp]E[dL]C[Thp]LIC-NH2; linker 7-11 via Pyridine(2,6-diCH2)) | 100 to 794
CC(=O)N[C@@H](CC(=O)O)C(=O)N[C@@H](Cc1c[nH]c2ccccc12)C(=O)N[C@@H](Cc1c[nH]c2ccc(Cl)cc12)C(=O)N1C[C@H](O)C[C@H]1C(=O)N[C@@H](CCC(=O)O)C(=O)N[C@H](CC(C)C)C(=O)N[C@H]1CSCc2cccc(n2)CSC[C@@H](C(N)=O)NC(=O)[C@H](CO)NC(=O)[C@H](CC(C)C)NC(=O)C2(CCOCC2)NC1=O [GIP-322, Ac-Asp-Trp-5Clw-Hyp-Glu-leu-[Cys(2Lut)-Thp-Leu-Ser-Cys]-NH2] (Ac-DW[Trp(5-Cl)][Hyp]E[dL]C[Thp]LSC-NH2; linker 7-11 via Pyridine(2,6-diCH2)) | 100 to 794
CC[C@H](C)[C@@H]1NC(=O)[C@H](CC(C)C)NC(=O)C2(CCOCC2)NC(=O)[C@@H](NC(=O)[C@@H](CC(C)C)NC(=O)[C@H](CCC(=O)O)NC(=O)[C@@H]2C[C@@H](O)CN2C(=O)[C@H](Cc2ccc(Cl)c(Cl)c2)NC(=O)[C@H](Cc2ccc(Cl)c(Cl)c2)NC(=O)[C@H](CC(=O)O)NC(C)=O)CSCc2cccc(n2)CSC[C@@H](C(N)=O)NC1=O [GIP-323, Ac-Asp-Eaa-Eaa-Hyp-Glu-leu-[Cys(2Lut)-Thp-Leu-Ile-Cys]-NH2] (Ac-D[Phe(3,4-Cl2)][Phe(3,4-Cl2)][Hyp]E[dL]C[Thp]LIC-NH2; linker 7-11 via Pyridine(2,6-diCH2)) | 100 to 794
CC[C@H](C)[C@@H]1NC(=O)[C@H](CC(C)C)NC(=O)[C@H](C)NC(=O)[C@@H](NC(=O)[C@H](CC(C)C)NC(=O)[C@H](CCC(=O)O)NC(=O)[C@@H]2CCCN2C(=O)[C@H](Cc2c[nH]c3ccccc23)NC(=O)[C@H](Cc2c[nH]c3ccccc23)NC(C)=O)CSCc2cccc(c2)CSC[C@@H](C(N)=O)NC1=O [GIP-324, Ac-Trp-Trp-Pro-Glu-Leu-[Cys(3MeBn)-Ala-Leu-Ile-Cys]-NH2] (Ac-WWPELCALIC-NH2; linker 6-10 via mXylylene) | > 1000

— patent US20250296971A1, “GASTRIC INHIBITORY PEPTIDE RECEPTOR LIGANDS” (priority 2021, published 2025)
